Data on 1 compound can be found in patent US20230210831A1, “CHRONIC KIDNEY DISEASE TREATMENT OR PREVENTION METHOD” (Japan Tobacco Inc., priority 2019, published 2023).

Experiment [1] has as its system glucose-loaded SD rats. Kind of experiment: OGTT (oral glucose tolerance test), Test Example 2. Format: in vivo, rat. The settings on record: 1, 3, or 10 mg/kg orally 16 hours before glucose load; male SD rats; compared to vehicle. The procedure: Vehicle (0.5% methylcellulose solution) or Compound 1 (1, 3, or 10 mg/kg) suspended in a 0.5% methylcellulose solution was orally administered in 5 mL/kg to an about 4-hour-fasted male SD rat (8-week old, Nihon Charles River K.K., 6 cases for each group).
Statistical analyses were based on Steel’s multiple test. The significance level was two-sided 5%.

The target of a further experiment is T1, human SGLT1 (Homo sapiens, UniProt P13866).
T1 construct: expressed in transfected cells; PCR template pCMV6-hSGLT1 (OriGene)
T1 sequence (P13866 1-664): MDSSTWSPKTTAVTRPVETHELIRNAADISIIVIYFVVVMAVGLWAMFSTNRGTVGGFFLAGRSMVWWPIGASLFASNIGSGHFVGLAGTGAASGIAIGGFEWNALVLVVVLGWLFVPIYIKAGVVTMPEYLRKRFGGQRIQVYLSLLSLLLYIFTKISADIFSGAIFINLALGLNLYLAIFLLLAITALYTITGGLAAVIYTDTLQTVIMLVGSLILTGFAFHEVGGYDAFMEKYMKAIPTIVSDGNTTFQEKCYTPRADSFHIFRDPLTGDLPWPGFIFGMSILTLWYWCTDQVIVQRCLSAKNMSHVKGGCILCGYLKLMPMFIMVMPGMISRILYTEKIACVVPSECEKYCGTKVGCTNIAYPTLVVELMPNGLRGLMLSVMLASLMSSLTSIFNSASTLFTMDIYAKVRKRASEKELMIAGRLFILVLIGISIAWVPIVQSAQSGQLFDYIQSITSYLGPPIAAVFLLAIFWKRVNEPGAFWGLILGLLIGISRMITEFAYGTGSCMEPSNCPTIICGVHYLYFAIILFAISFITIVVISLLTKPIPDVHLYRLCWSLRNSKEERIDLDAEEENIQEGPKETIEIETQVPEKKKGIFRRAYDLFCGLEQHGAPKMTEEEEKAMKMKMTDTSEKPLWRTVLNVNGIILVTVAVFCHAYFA
Kind of experiment: Assessment of SGLT1 inhibitory activity (14C-AMG uptake in human SGLT1-stably-expressing CHO-K1 cells). Format: cell-based. As for the experimental part: SGLT1 inhibitory activities of test compounds (IC50 values) were calculated based on the amount of intracellular uptake of labelled α-methyl-D-glucopyranoside (^14C-AMG) transported by SGLT1.
A DNA fragment containing human SGLT1 was amplified by PCR (Polymerase Chain Reaction) using pCMV6-hSGLT1 (OriGene) as a template. In the human SGLT1, NheI recognition and cleavage sequence was added to the upstream of Kozac consensus sequence derived from a vector, and a stop codon, TAG, and SalI recognition and cleavage sequence were added to the immediate downstream of the protein-translating region of human SGLT1. […]
Human SGLT1-stably-expressing cell lines were seeded at 5 x 10^4 cells/well on BioCoat™ Poly-D-Lysine 96 well plate with Lid (Becton, Dickinson and Company) and cultured at 37° C. under 5% CO2 overnight. […] In the assessment for the uptake ability of 14C-AMG, the total amount of the cell lysate was transferred to OptiPlate 96 (Perkin-Elmer) with 100 µL/well of MicroScint-40 (Perkin-Elmer) dispensed and ^14 C of CPM was measured with TOPCOUNT NXT (Perkin-Elmer).
Data was calculated by deducting the average value of CPM for blank well from the average value of CPM for each well treated. An inhibition rate for each test compound in each concentration was calculated from the following equation: […]

Another experiment deals with SDT fatty rats. Briefly: Assessment of renal protective effect (GFR in SDT fatty rats). Format: in vivo, rat. The note with it: 2 mg/kg orally once a day, 16 weeks; male SDT fatty rats. As for the experimental part: Vehicle (0.5% methyl cellulose solution), Compound 1 (2 mg/kg), or dapagliflozin (0.3 mg/kg) was orally administered once a day to male SDT fatty rats (7-week old, CLEA Japan, Inc.); and as a normal control, vehicle was orally administered once a day to male SD rats (7-week old, CLEA Japan, Inc.). 16 Weeks after the administration, GFR (mL/min/100 g B.W.) was measured with a transdermal GFR monitor (MediBeacon). For statistical analysis, Student’s test was conducted between the vehicle-administered group of SD rats and the vehicle-administered group of SDT fatty rats. Dunnett’s multiple test was conducted for the Compound 1 and dapagliflozin groups to the vehicle group of SDT fatty rats. The significance level was two-sided 5%.

The test system of another experiment is ⅚-kidney-removed rats. Briefly: Assessment of renal protective effect 2 (⅚-kidney-removed rats). It is filed as in vivo, rat. The note with it: 2 mg/kg/day mixed with feed, vs vehicle-administered group. As for the experimental part: 7-Week old male Wistar rats (Japan SLC, Inc.) were treated by removing ⅔ of the left kidney under isoflurane anesthesia and then removing the whole right kidney one week later to prepare ⅚-kidney-removed rats. Compound 1 (2 mg/kg/day) mixed with feed was orally administered to the rats from the age of 9 weeks. As a normal control, male Wistar rats at the same age were set as a sham group. […] For statistical analysis, Student’s test was conducted between the vehicle-administered group and the Compound 1-administered group. […] For statistical analysis, Student’s test or Aspin-Welch was conducted.

Experiment [2] has as its system glucose-loaded SD rats. Kind of experiment: OGTT (oral glucose tolerance test), Test Example 3. Format: in vivo, rat. The settings on record: 3 mg/kg orally 16 hours before glucose load; male SD rats; compared to vehicle. As for the experimental part: Vehicle (0.5% methylcellulose solution), or Compound 1, Compound A, or Compound B (3 mg/kg each) suspended in a 0.5% methylcellulose solution was orally administered in 5 mL/kg to an about 4-hour-fasted male SD rat (8-week old, Nihon Charles River K.K., 5 cases for each group).
Statistical analyses were based on Dunnett’s multiple group test. The significance level was two-sided 5%.

Take `C[C@H]1C(=O)NC[C@@H]1C(=O)Nc1cc(-c2cc(F)cc(OC(C)(C)C)c2)n(C(F)(F)F)n1` [Compound 1, (3R,4R)-N-(5-(3-(tert-butoxy)-5-fluorophenyl)-1-(trifluoromethyl)-1H-pyrazol-3-yl)-4-methyl-5-oxopyrrolidine-3-carboxamide]: the “blood glucose level after the glucose load (Δ AUC to 120 minutes, % of Vehicle)” value in the experiment on glucose-loaded SD rats [1] and in the experiment on glucose-loaded SD rats [2] was “significantly reduced” each time. For the same compound, the SGLT1 inhibitory activity result at human SGLT1 is reported as “confirmed to have the SGLT1 inhibitory activity”. In addition, the GFR result in the experiment on SDT fatty rats is “inhibited the increase of GFR”. The “protein quantity in the urine” value with ⅚-kidney-removed rats is “lower than those of the vehicle-administered group”. Also, the urea nitrogen level entry with ⅚-kidney-removed rats is on record as “significantly lower than those of the vehicle-administered group”.
